Data from US20230057359A1, “NOVEL USE OF STEVIOL” (SUNTORY HOLDINGS LIMITED, priority 2019, published 2023).

Key:
Format in all cases: cell-based
[1] = system: adipocytes differentiated from normal human subcutaneous preadipocytes; assay: Lipolysis test in adipocytes (free glycerol in culture supernatant); settings: for Relative lipolysis level (%): 24 hours, DMSO=100%
Procedure: Normal human subcutaneous preadipocytes were precultured using the growth medium in the same manner as in Example 1. The cells were detached using 0.25% trypsin-EDTA, seeded at 10,000 cells/100 μL/well to a 96-well plate using the growth medium, and cultured overnight in a CO2 incubator. On the next day, the medium was replaced with the differentiation medium (100 μL), and the cells were cultured for 10 days in a CO2 incubator to induce their differentiation into adipocytes. On the fourth and seventh days after the differentiation induction, the medium was replaced with a fresh differentiation medium (100 μL). Next, the medium was replaced with a differentiation medium supplemented with varying concentrations of steviol (10, 30 or 100 μg/mL, dissolved in 0.1% DMSO (final concentration)), and the cells were cultured for 24 hours in a CO2 incubator. Then, a free glycerol level in a culture supernatant was measured using Adipolysis Assay Kit (Cat. No. 10009381, Cayman Chemical Co.) according to the manufacturer's protocol. For the measurement, absorbance (540 nm) was measured using a plate reader (VARIOSKAN FLASH, Thermo Fisher Scientific Inc.), and a relative free glycerol concentration was calculated. A differentiation medium supplemented with 10 μM isoproterenol (ISP) was used as a positive control, and a vehicle control (DMSO) composed of a differentiation medium supplemented with 0.1% DMSO (final concentration) and a no-addition control composed of only the differentiation medium were used as negative controls. Significant difference among the test groups to be compared (no-addition group vs positive control group, vehicle control group vs steviol addition group) was tested by the Student's t test. The two-tailed test was conducted, and P<0.05 was regarded as having significant difference.

[2] = system: adipocytes differentiated from normal human subcutaneous preadipocytes; assay: Sugar uptake test in adipocytes (intracellular 2DG6P, Glucose Uptake-Glo); settings: for Relative luminescence intensity (%) (relative intracellular 2DG6P level): 4 hours, DMSO=100%
Procedure: Normal human subcutaneous preadipocytes were precultured using the growth medium in the same manner as in Example 1. The cells were detached using 0.25% trypsin-EDTA, seeded at 10,000 cells/100 μL/well to a 96-well plate using the growth medium, and cultured overnight in a CO2 incubator. On the next day, the medium was replaced with the differentiation medium (100 μL). The cells were cultured for 10 days in a CO2 incubator to induce their differentiation into adipocytes. On the fourth and seventh days after the differentiation induction, the medium was replaced with a fresh differentiation medium (100 μL). Next, the medium was replaced with 100 μLL of a serum-free medium (PBM-2 medium supplemented with 2 mM L-glutamine, 50 μg/mL gentamycin, and 37 ng/mL amphotericin-B, Cat. No. PT-8002, Lonza Group AG), and the cells were cultured for 18 hours in a CO2 incubator. Subsequently, the medium was replaced with 100 μL of a glucose-free serum-free medium (DMEM, no glucose, Cat. No. 11966025, Thermo Fisher Scientific Inc.) supplemented with varying concentrations of steviol (10, 30 or 100 μg/mL, dissolved in 0.1% DMSO (final concentration)), and the cells were cultured for 4 hours in a CO2 incubator. A glucose-free serum-free medium supplemented with 100 μM acadesine (AICAR, Cat. No. A9978, Sigma-Aldrich Co., LLC) was used as a positive control, and a vehicle control composed of a glucose-free serum-free medium supplemented with 0.1% DMSO (final concentration) and a no-addition control composed of only a glucose-free serum-free medium were used as negative controls. After culture, intracellular 2-deoxyglucose-6-phosphate (2DG6P, 2-deoxyglucose (2DG) phosphorylation product) level was measured by the following procedures using Glucose Uptake-Glo Assay kit (Cat. No. J1341, Promega Corp.). The medium of each well was replaced with a DPBS solution (50 μL) supplemented with 1 mM 2DG. After incubation at room temperature for 10 minutes, a stop buffer (25 μL), a neutralization buffer (25 μL), and a 2DG6P detection reagent (100 μL) were added thereto. After incubation at room temperature for 60 minutes, luminescence intensity was measured using a plate reader (VARIOSKAN FLASH, Thermo Fisher Scientific Inc.), and relative luminescence intensity was regarded as a relative intracellular 2DG6P level. Significant difference among the test groups to be compared (no-addition group vs positive control group, vehicle control group vs steviol addition group) was tested by the Student's t test. The two-tailed test was conducted, and P<0.05 was regarded as having significant difference.

HepG2 cells = assay: Cytotoxicity of steviol to hepatocytes (WST-8 viable cell count); settings: for Relative viable cell count (%): 24 hours, Control=100%
Procedure: 5×10^5 HepG2 cells (Cat. No. JCRB1054, JCRB) were precultured for 5 days in a T75 flask using a growth medium (DMEM (high glucose, Cat. No. D5796, Sigma-Aldrich Co., LLC) supplemented with 10% FBS (Cat. No. 172012, Sigma-Aldrich Co., LLC) and 1% penicillin-streptomycin (Cat. No. 09367-34, Nacalai Tesque Inc.)) in a CO2 incubator. The cells were detached using 0.25% trypsin-EDTA, seeded at 10,000 cells/100 μL/well to a 96-well plate using the growth medium, and cultured overnight in a CO2 incubator. On the next day, the medium was replaced with 100 μL of a growth medium supplemented with varying concentrations of steviol (0.001, 0.01, 0.1, 1, 10 or 100 μg/mL, dissolved in 0.1% DMSO (final concentration)), and the cells were cultured for 24 hours in a CO2 incubator. A vehicle control composed of a growth medium supplemented with 0.1% DMSO (final concentration) was used as a negative control (Control). Viable cell count measurement was performed by the WST-8 method. Specifically, the medium of each well after culture was replaced with 100 μL of growth medium supplemented with a 1/10 amount of viable cell count measurement reagent SF, and the cells were incubated in a CO2 incubator. 30 minutes later and 90 minutes later, absorbance (450 nm, reference wavelength: 630 nm) was measured using a plate reader (VARIOSKAN FLASH, Thermo Fisher Scientific Inc.), and absorbance difference per 60 minutes was regarded as a relative viable cell count.

In the case of `C=C1C[C@@]23CC[C@H]4[C@@](C)(CCC[C@@]4(C)C(=O)O)[C@@H]2CC[C@]1(O)C3` [Steviol, steviol], the “lipolysis in adipocytes (in words)” value ([1]; 10, 30 or 100 μg/mL) is reported as “promoted lipolysis in adipocytes in a concentration-dependent manner”, the “Relative lipolysis level (%)” value ([1]; steviol 10 μg/mL) is reported as 99.5% and the “Relative lipolysis level (%)” value ([1]; steviol 30 μg/mL) is reported as 115.5%. The “Relative lipolysis level (%)” value ([1]; steviol 100 μg/mL) was 123.4%, the “sugar uptake in adipocytes (in words)” value ([2]; 10, 30 or 100 μg/mL) was “promoted sugar uptake in adipocytes in a concentration-dependent manner” and the “Relative luminescence intensity (%) (relative intracellular 2DG6P level)” value (from here on “Relative luminescence intensity (%)”) ([2]; steviol 10 μg/mL) was 109.6%. For the same compound, the “Relative luminescence intensity (%)” value ([2]; steviol 30 μg/mL) was 142.5%, the “Relative luminescence intensity (%)” value ([2]; steviol 100 μg/mL) was 216.2% and the “cytotoxicity to hepatocytes (in words)” value (HepG2 cells; 100 μg/mL steviol) was “no particular cytotoxicity to be noted was found”. For the same compound, the “Relative viable cell count (%)” value (HepG2 cells; steviol 0.01 μg/mL) was 98.8%, the “Relative viable cell count (%)” value (HepG2 cells; steviol 0.1 μg/mL) was 98.4% and the “Relative viable cell count (%)” value (HepG2 cells; steviol 1 μg/mL) was 95.3%. The “Relative viable cell count (%)” value (HepG2 cells; steviol 10 μg/mL) was 95.6% and the “Relative viable cell count (%)” value (HepG2 cells; steviol 100 μg/mL) was 87.7%.
